Measurements: paper PMC4806436, “Disrupted ADP-ribose metabolism with nuclear Poly (ADP-ribose) accumulation leads to different cell death pathways in presence of hydrogen peroxide in procyclic Trypanosoma brucei” (Parasites & Vectors, 2016)
“Also recorded” adds a separate entry of the source. Like-named read-outs stand apart in the source and are kept apart here.

Tests used:
TbPARP = TbPARP (Trypanosoma brucei brucei, UniProt Q0PW89); assay: biochemical; details: 5 nM TbPARP, 500 nM NAD+, 11 min at 25 °C, mean of three dose-response curves
Protocol: The optimal conditions for the activity of purified recombinant TbPARP, were determined by using a fluorometric activity assay. Incubation at 25 °C with shaking at 300 rpm was placed in propylene plates of 96 wells (Greiner BioOne). To terminate the reaction 2 M KOH (20 μL) and 20 % acetophenone in ethanol (20 μL) were added to each well. After incubating for 10 min at 4 °C, 90 μl of 88 % formic acid was added and incubated in an oven at 110 °C for 5 min. This reaction converts remaining NAD^+ to a fluorescent derivative. After incubation, the plate was allowed to cool down for 15 min and fluorescence was measured using excitation wavelengths of 372 nm and 444 nm for excitation and emission, respectively (Varioskan Flash 4.00.53, Thermo Scientific). Consumption of NAD^+ was detected by the decrease in fluorescence. Experiments were done in triplicates. The activity in control wells were kept under 25 % by optimizing the protein concentration and the incubation time, in order to get a robust signal without slowing down the enzyme activity.
A small set of cations was also tested in order to verify whether the enzymatic activity would depend on them. […] The final assay buffer was 100 mM Na2HPO4/NaH2PO4 pH 7, 500 μM TCEP, 1 μg/μL BSA, and 0.025 mg/mL activated DNA (Sigma Aldrich) and 500 nM NAD^+ (Sigma Aldrich).
Thirty - one compounds were tested. Dilutions from DMSO stocks were made (100 μM, 10 μM and 1 μM) and aliquots of those were used in the enzymatic reaction with 10-fold dilution. Inhibitor solutions were added in triplicates to the plate, followed by the addition of the NAD^+. Reactions were initiated by addition of TbPARP diluted in the same buffer (10 nM). The plate was incubated at 25 °C with shaking (300 rpm, Biosan PST-100 HL) for 45 min. […] To detect any potential fluorescence inherent in the compounds, control reactions were carried out separately with compound alone at 10 μM final concentration. The possible fluorescence quenching properties were controlled using wells within the experimental plate containing the compound with 500 nM NAD^+ in the assay buffer.
The IC50 value for 3-AB (Alexis Biochemicals) was also determined to be used as a reference. Briefly, reaction mix together with the inhibitors at half log dilutions were added to a 96-well plate (10 data points). Reactions were incubated for 11 min at 25 °C after initiating the reaction with the addition of 5 nM TbPARP at a final volume of 50 μL. Measurement of the remaining NAD^+ is described in section Screening of TbPARP inhibitors. All reactions were performed in triplicates and three independent dose response curves were fitted for each inhibitor. Control wells with only NAD^+ or NAD^+ and enzyme were used in the curve fitting, as detailed in our previous work.

[1] = system: PAR formation in procyclic T. brucei; assay: In culture inhibition of PAR formation after H2O2, Dot blot, procyclic form; assay type: cell-based, Trypanosoma brucei; details: inhibitor at 10-fold in vitro IC50 (0.23 μM 4-ANI; 65 nM EB-47; 29 nM Olaparib; 1.5 μM Rucaparib), 30 min preincubation, 500 μM H2O2 10 min
Protocol: (§1) T. brucei procyclic strain 29–13 [29] was cultured at 28 °C in SDM-79 (Bioscience) containing 10 % (v/v) FCS and 0002 % hemin. T. brucei bloodstream strain 427 90-13 [29] was cultured at 37 °C in HMI-11 (Iscore’s Modified Dulbecco’s Medium (Invitrogen), 100 mg/L sodium pyruvate, 136.1 mg/L hypoxantine, 38.7 mg/L thymidine, 28.22 mg/L bathocuproinedisulfonic acid, 181.8 mg/L L-cysteine, 3.024 mg/L sodium carbonate, 196 μM β-mercaptoethanol) containing FCS (10 % v/v). Parasite viability was analyzed by microscopy.
(§2) For in culture inhibition assays, parasites of the procyclic form of Trypanosoma brucei were grown for 48 h up to a density of 5×10^6 parasites/mL. Parasites of the bloodstream form were grown for 24 h up to a density of 5×10^5 parasites/mL. In both cases, cells were harvested and preincubated for 30 min or 10 min in PBS-Glucose 2 % with inhibitors added, after which the parasites were treated with 500 μM or 250 μM hydrogen peroxide for procyclic and bloodstream forms, respectively, for 10 min.

[2] = system: PAR formation in bloodstream T. brucei; assay: In culture inhibition of PAR formation after H2O2, Dot blot, bloodstream form; assay type: cell-based, Trypanosoma brucei; details: inhibitor at 10-fold in vitro IC50 (29 nM Olaparib; 1.5 μM Rucaparib), 10 min preincubation, 250 μM H2O2
Protocol: as §1, §2

[3] = system: Trypanosoma brucei procyclic parasites; assay: Effect of inhibitors on procyclic parasite growth (OD600, 48 h); assay type: cell-based
Protocol: Trypanosoma brucei procyclic parasites were grown in SDM-79 medium for 48 h until reaching a density of 5×10^6 cells/mL. Aliquots of 200 μl were distributed in 96-well plates and inhibitors were present at different final concentrations, as indicated in the figures. Nifurtimox (NFX) was used as a positive control in concentrations ranging from 0.25–25 μM. Culture density was checked by OD600 after 48 h.
In all experiments, triplicates were done for each condition tested and data significance was assessed by one-way Anova (GraphPad Prism5.03 version Software).

[4] = system: Trypanosoma brucei bloodstream parasites; assay: Effect of inhibitors on bloodstream parasite growth (Neubauer count, 24 h); assay type: cell-based; details: Olaparib 29 nM, Rucaparib 1.5 μM, 3-AB 580 μM, Nifurtimox 2.5 μM
Protocol: Trypanosoma brucei bloodstream parasites were grown in HMI-11 medium for 24 h until reaching a density of 5×10^5 cells/mL. Aliquots of 100 μL were distributed in 96-well plates and inhibitors were added at different concentrations as indicated in the figures. After an incubation period of 24 h, the parasite number was counted with a Neubauer chamber. In all experiments, triplicates were done for each condition tested and data significance was assessed by one-way Anova (GraphPad Prism5.03 version Software).

TcPARP = system: TcPARP; design: method as in PMID 23049934; details: read-out: potency towards TcPARP; cited from earlier work

Chain of TbPARP (Q0PW89 entry or part of it): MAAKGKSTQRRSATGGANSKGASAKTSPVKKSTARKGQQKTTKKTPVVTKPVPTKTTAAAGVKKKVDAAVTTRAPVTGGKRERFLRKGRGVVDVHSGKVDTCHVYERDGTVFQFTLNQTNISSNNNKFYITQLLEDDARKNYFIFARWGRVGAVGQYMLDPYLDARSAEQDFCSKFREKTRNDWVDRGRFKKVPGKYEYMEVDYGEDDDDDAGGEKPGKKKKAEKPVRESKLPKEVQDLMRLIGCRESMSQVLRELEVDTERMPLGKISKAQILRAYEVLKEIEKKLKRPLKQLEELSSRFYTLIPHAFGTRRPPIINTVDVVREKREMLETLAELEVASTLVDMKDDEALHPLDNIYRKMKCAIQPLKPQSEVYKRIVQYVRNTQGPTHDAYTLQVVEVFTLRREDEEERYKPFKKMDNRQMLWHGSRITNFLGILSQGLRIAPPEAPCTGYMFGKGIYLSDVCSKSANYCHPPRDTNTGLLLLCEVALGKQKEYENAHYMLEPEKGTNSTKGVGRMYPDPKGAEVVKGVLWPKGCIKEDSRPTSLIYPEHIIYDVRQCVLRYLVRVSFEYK

IC50 (TbPARP; read-out: TbPARP IC50): 150 nM
IC50 (TbPARP; read-out: TbPARP pIC50 ± SEM (converted)): 148 nM
Compound: CNCc1ccc(-c2[nH]c3cc(F)cc4c3c2CCNC4=O)cc1 [Rucaparib, 6-fluoro-2-{4-[(methylamino)methyl]phenyl}-3,10-diazatricyclo[6.4.1.0^{4,13}]trideca-1,4(13),5,7-tetraen-9-one]
inhibition of PAR formation in culture, procyclic form [1]: inhibited PAR formation in culture; also recorded: able to reduce PAR formation
inhibition of PAR formation in culture, bloodstream form [2]: able to inhibit PAR formations in culture; also recorded: able to reduce PAR formation
impact on growth rate of procyclic parasites ([3]; 15 μM (highest concentration)): visible impact on the growth rate
decrease in procyclic parasite growth ([3]; 15 μM, 48 h): 20%
effect on bloodstream parasite growth [4]: not able to significantly affect T. brucei growth or survival
IC50 (TcPARP): 25 nM
